From ChEMBL document CHEMBL1150267, “Synthesis and screening of mono- and di-aryl technetium and rhenium metallocarboranes. A new class of probes for the estrogen receptor” (J Med Chem, 2008) come the findings set out here.

The nature of the data set: physchem. The conditions noted are these: octanol/water.

Usually logP stands for a log measure of how a compound divides between an organic and an aqueous phase. The low end stands for a more hydrophilic compound, the high end for a more lipophilic compound.

Description: Lipophilicity, log P of the compound

On to `c1ccc(Oc2ccccc2)cc1`, for which the logP worked out at 4.2.
